Laboratory results from ChEMBL document CHEMBL4483862, “Open-source discovery of chemical leads for next-generation chemoprotective antimalarials” (2018).

Tested on: Plasmodium berghei
Test: Luciferase/luciferin-expressing antifolate-resistant parasites were used to infect a culture of HepG2 cells that were pre-incubated with compounds. Infected hepatocytes emit light due to the luciferase reaction. Assay results are presented as the percent inhibition of light emission compared to control. […]
Format: functional
Details: sporozoite; for IC50: read-out: LUCIFERASE INFECTION ASSAY - IC50; for IC90: read-out: LUCIFERASE INFECTION ASSAY - IC90

**Q.** What does the source list for `CC(NC1CCCCCC1)C(=O)c1c[nH]c2ccccc12` (centres undefined)?
**A.** IC50: > 10 µM; IC90: > 10 µM

**Q.** Which IC50 does the source give for `CN(C)c1nc(N)nc(COC(=O)c2cccc(Br)c2)n1` here?
**A.** > 10 µM

**Q.** And the IC90?
**A.** > 10 µM

**Q.** How did the IC50 turn out when `Cc1[nH]c2ccccc2c1-c1nc(Nc2ccc3c(c2)OCCO3)sc1C` was run?
**A.** > 10 µM

**Q.** What about the IC90 of the same compound?
**A.** > 10 µM

**Q.** With `O=C1NC(c2ccc(N3CCCCC3)cc2)Nc2ccccc21` (centres undefined) as the compound, how does the IC50 read?
**A.** 0.0973 µM

**Q.** What about the IC90 of the same compound?
**A.** 0.743 µM

**Q.** How did the IC50 turn out when `Cc1c(Cl)c(CN2C(=O)C(=O)N(Cc3cccs3)C2=O)nc2ccccc12` was run?
**A.** > 10 µM

**Q.** And the IC90?
**A.** > 10 µM

**Q.** What does the source list for `CCOc1ccc(CN(CC)C(=O)c2ccc(=O)[nH]c2)cc1OC`?
**A.** IC50: > 10 µM; IC90: > 10 µM

**Q.** For `CN(C)C(=O)CN(C)S(=O)(=O)/C=C/c1ccccc1`, which IC50 is on record?
**A.** > 10 µM

**Q.** And the IC90?
**A.** > 10 µM

**Q.** Which results are given for `CN(C)C(CNC(=O)c1ccc(NC(=O)OC(C)(C)C)cc1)c1cccs1` (centres undefined)?
**A.** IC50: > 10 µM; IC90: > 10 µM

**Q.** `O=C(OCc1cc(=O)n2cc(Br)ccc2n1)C1(c2ccccc2)CC1` was tested. Which IC50 did it give?
**A.** > 10 µM

**Q.** What about the IC90 of the same compound?
**A.** > 10 µM

**Q.** Which IC50 does the source give for `Cc1cc(C)cc(NC(=O)C(Sc2nc(=O)cc(N)[nH]2)c2ccccc2)c1` (centres undefined) here?
**A.** > 10 µM

**Q.** And the IC90?
**A.** > 10 µM

**Q.** How did the IC50 turn out when `O=C(Cc1noc2ccccc12)N1CCN(c2ccc(C(F)(F)F)cn2)CC1` was run?
**A.** > 10 µM

**Q.** And the IC90?
**A.** > 10 µM

**Q.** Which IC50 does the source give for `CCCc1ccc(-c2nc(NC(=O)CCc3ccsc3)sc2C)cc1` here?
**A.** > 10 µM

**Q.** What about the IC90 of the same compound?
**A.** > 10 µM

**Q.** With `O=C(c1cc(-c2ccccc2)n[nH]1)N1CCN(c2ccccc2F)CC1` as the compound, how does the IC50 read?
**A.** > 10 µM

**Q.** What about the IC90 of the same compound?
**A.** > 10 µM

**Q.** How did the IC50 turn out when `CC(NC(=O)Cn1c2ccccc2c(=O)c2ccccc21)c1cc2ccccc2o1` (centres undefined) was run?
**A.** 6.06 µM

**Q.** What about the IC90 of the same compound?
**A.** > 10 µM

**Q.** Which IC50 does the source give for `CC(=O)NCCc1ccc(C(=O)Cn2cnc3ccc(Cl)cc3c2=O)s1` here?
**A.** > 10 µM

**Q.** What about the IC90 of the same compound?
**A.** > 10 µM

**Q.** `O=C(CCc1cccnc1)Nc1ccc(OC(F)(F)F)cc1` was tested. Which IC50 did it give?
**A.** > 10 µM

**Q.** What about the IC90 of the same compound?
**A.** > 10 µM

**Q.** For `Cc1nc(-c2ccccc2)sc1C(=O)OC(C)C(=O)N1CCNC1=O` (centres undefined), which IC50 is on record?
**A.** > 10 µM

**Q.** What about the IC90 of the same compound?
**A.** > 10 µM

**Q.** `CCOC(=O)C1=C(CN(C)C2CCCCC2)NC(=O)NC1` was tested. Which IC50 did it give?
**A.** > 10 µM

**Q.** And the IC90?
**A.** > 10 µM

**Q.** `COC(=O)c1ccccc1N(C)S(=O)(=O)c1ccc(Cl)cc1F` was tested. Which IC50 did it give?
**A.** > 10 µM

**Q.** And the IC90?
**A.** > 10 µM

**Q.** `CCCNC(=O)COC(=O)c1cc(Br)ccc1N` was tested. Which IC50 did it give?
**A.** > 10 µM

**Q.** And the IC90?
**A.** > 10 µM

**Q.** Which results are given for `COC(=O)c1ccc(S(=O)(=O)N2c3ccccc3CCC2C)cc1` (centres undefined)?
**A.** IC50: > 10 µM; IC90: > 10 µM

**Q.** What does the source list for `CC1C(=O)N(Cc2ncc(-c3ccccc3)o2)C(=O)N1c1ccc(F)cc1` (centres undefined)?
**A.** IC50: 9.72 µM; IC90: > 10 µM

**Q.** For `CCOc1ccccc1CCC(=O)NCc1ccc(CS(N)(=O)=O)cc1`, which IC50 is on record?
**A.** > 10 µM

**Q.** And the IC90?
**A.** > 10 µM

**Q.** For `CCNC(=O)c1cccc(Nc2nc(C(F)(F)F)nc3ccccc23)c1`, which IC50 is on record?
**A.** > 10 µM

**Q.** And the IC90?
**A.** > 10 µM

**Q.** What does the source list for `Cc1c(-n2nnnc2SCC(C)C)c(=O)n(-c2ccccc2)n1C`?
**A.** IC50: > 10 µM; IC90: > 10 µM

**Q.** Which results are given for `Cc1cc(C)c(SC(C)C(=O)NC(N)=O)c(C)c1` (centres undefined)?
**A.** IC50: > 10 µM; IC90: > 10 µM

**Q.** What does the source list for `C1=C(c2nc3ccccc3[nH]2)C(c2ccccc2)=NNC1c1ccccc1` (centres undefined)?
**A.** IC50: 9.97 µM; IC90: > 10 µM

**Q.** What does the source list for `CN(C)S(=O)(=O)c1ccc(N2CCCC2)c(C(=O)N2CCCC2)c1`?
**A.** IC50: > 10 µM; IC90: > 10 µM

**Q.** What does the source list for `Cc1ccc(-n2nnnc2SCc2nc(-c3ccc(C)c(F)c3)no2)c(C)c1`?
**A.** IC50: > 10 µM; IC90: > 10 µM

**Q.** Which results are given for `Cc1ccc2cc(CN3CCCCC3C(N)=O)c(Cl)nc2c1C` (centres undefined)?
**A.** IC50: > 10 µM; IC90: > 10 µM

**Q.** Which results are given for `CN(C)C(=O)CNC(=O)c1ccc(C(F)(F)F)cc1`?
**A.** IC50: > 10 µM; IC90: > 10 µM

**Q.** For `Cc1cc(-c2nc(C)sc2CC(=O)O)c(C)s1`, which IC50 is on record?
**A.** > 10 µM

**Q.** What about the IC90 of the same compound?
**A.** > 10 µM

**Q.** With `CC(C)Cn1c(SC2CCOC2=O)nc2cc(Cl)ccc2c1=O` (centres undefined) as the compound, how does the IC50 read?
**A.** > 10 µM

**Q.** What about the IC90 of the same compound?
**A.** > 10 µM

**Q.** What does the source list for `O=C(c1c[nH]nc1-c1ccccc1)N1CCN(S(=O)(=O)c2ccccc2)CC1`?
**A.** IC50: > 10 µM; IC90: > 10 µM

**Q.** With `CCC1c2ccsc2CCN1Cc1cc(=O)n2cc(Cl)ccc2n1` (centres undefined) as the compound, how does the IC50 read?
**A.** > 10 µM

**Q.** And the IC90?
**A.** > 10 µM

**Q.** For `CCOC(=O)c1ccc(OC(C)C(=O)NC2CCCC(C)C2C)cc1` (centres undefined), which IC50 is on record?
**A.** > 10 µM

**Q.** What about the IC90 of the same compound?
**A.** > 10 µM

**Q.** `COc1cc(/C=C2\C=c3ccccc3=C2O)cc(Cl)c1OC(C)C` was tested. Which IC50 did it give?
**A.** > 10 µM

**Q.** And the IC90?
**A.** > 10 µM
